From ChEMBL document CHEMBL4811258, “Potent Antimalarials with Development Potential Identified by Structure-Guided Computational Optimization of a Pyrrole-Based Dihydroorotate Dehydrogenase Inhibitor Series” (J Med Chem, 2021)

What was measured:
[1] = Unbound intrinsic clearance in mouse liver microsomes at 1 uM measured up to 4 hrs by LC-MS analysis; format: ADME, Microsome
[2] = test system: HepG2; test: Cytotoxicity against human HepG2 cells; format: cell-based
[3] = in vivo; details: Sprague-Dawley, rat, po, 17 mg/kg
[4] = rat, in vivo, po, 10 mg/kg, 24 h
[5] = Plasma clearance in Swiss mouse at […], iv measured up to 24 hrs by LC-MS analysis; format: ADME, organism-based; details: dose 2.3 mg/kg
[6] = Cmax in Sprague-Dawley rat at 17 mg/kg, po measured up to 24 hrs; format: ADME, organism-based; set-up: route oral, dose 17 mg/kg, time <=24; details: in vivo
[7] = Half life in Swiss mouse at 24 mg/kg, po measured up to 24 hrs by LC-MS analysis; format: ADME, organism-based; details: in vivo
[8] = human, caco-2, pH 7.4
[9] = Cmax in Swiss mouse at […], po measured up to 24 hrs by LC-MS analysis; format: ADME, organism-based; set-up: route oral, dose 2.6 mg/kg, time <=24; details: in vivo
[10] = Apparent half life in Sprague-Dawley rat at 17 mg/kg, po measured up to 24 hrs; format: ADME, organism-based; details: in vivo, read-out: t1/2(app) (converted)
[11] = test system: Plasmodium falciparum; test: Antiplasmodial activity against Plasmodium falciparum Dd2 Uganda infected in human erythrocytes assessed as parasite killing using albumax media measured after 72 hrs by SYBR Green assay; format: functional, organism-based; details: Dd2, 72 h
[12] = Binding affinity to microsome (unknown origin); format: ADME; details: microsomes
[13] = Volume of distribution at steady state in Swiss mouse at […], iv measured up to 24 hrs by LC-MS analysis; format: ADME, organism-based; details: in vivo, dose 2.3 mg/kg, read-out: Vdss
[14] = AUC (0 to infinity) in Sprague-Dawley rat at 17 mg/kg, po measured up to 24 hrs; format: ADME, organism-based; set-up: route oral, dose 17 mg/kg, time <=24; details: in vivo

Cc1c(C2(c3ccc(C(F)(F)F)nc3)CC2)c[nH]c1C(=O)NC(C)c1nc[nH]n1 (stereo in doubt; form 1)
CL free [1]: 17 µL/min/mg | Activity [2]: Non-Toxic | Tmax at 24 h [3]: 2.5 h | AUC [4]: 47 µM·h | clearance at 24 h [5]: 2.8 mL/min/kg | Cmax [6]: 14 µM | t1/2 [7]: 4.5 h | Papp [8]: 70 10^-6 cm/s | Cmax at 24 h [9]: 2.6 µM | half-life [10]: 3.7 h | EC50 [11]: 6.9 nM | Activity [12]: 34.2% | Vd at 24 h [13]: 1.3 L/kg | AUC(0-inf) [14]: 120 µM·h
